Source: ChEMBL document CHEMBL5303304, “EUbOPEN Chemogenomics Library - IncuCyte” (2023)

Columns and labels:
Assay type in all cases: toxicity, cell-based
HEK-293T = assay: Incucyte cell viability with HEK293T; conditions: human, 10 µM, compound concentration 10 uM
Fibroblast = assay: Incucyte cell viability with human fibroblast; conditions: 10 µM, compound concentration 10 uM
U2OS = assay: Incucyte cell viability with U2OS; conditions: human, 10 µM, compound concentration 10 uM
Note: unitless GR value; below 1 slowed growth and below 0 cell loss.

Row | Compound | Growth Rate (HEK-293T; 6 h, replicate number 1) | Growth Rate (HEK-293T; 12 h, replicate number 1) | Growth Rate (HEK-293T; 18 h, replicate number 1) | Growth Rate (HEK-293T; 24 h, replicate number 1) | Growth Rate (Fibroblast; 0 h, replicate number 2) | Growth Rate (Fibroblast; 6 h, replicate number 1) | Growth Rate (U2OS; 0 h, replicate number 1) | Growth Rate (U2OS; 6 h, replicate number 1) | Growth Rate (U2OS; 12 h, replicate number 1) | Growth Rate (U2OS; 12 h, replicate number 2) | Growth Rate (U2OS; 18 h, replicate number 1) | Growth Rate (U2OS; 18 h, replicate number 2) | Growth Rate (U2OS; 24 h, replicate number 1) | Growth Rate (U2OS; 24 h, replicate number 2) | Growth Rate (HEK-293T; 6 h, replicate number 2) | Growth Rate (HEK-293T; 12 h, replicate number 2) | Growth Rate (HEK-293T; 24 h, replicate number 2) | Growth Rate (Fibroblast; 12 h, replicate number 2) | Growth Rate (Fibroblast; 18 h, replicate number 2) | Growth Rate (Fibroblast; 24 h, replicate number 2) | further results
1 | CC1(C)CCC(CN2CCN(c3ccc(C(=O)NS(=O)(=O)c4ccc(NCC5CCOCC5)c([N+](=O)[O-])c4)c(Oc4cnc5[nH]ccc5c4)c3)CC2)=C(c2ccc(Cl)cc2)C1 [VENETOCLAX] | 0.01 | 0.58 | 0.66 | 0.87 | -0.85 | 0.5 | 0.58 | 0.5 | 0.81 | 0.51 | 0.78 | 0.89 | 0.81 | 0.93 | – | – | – | – | – | – | Growth Rate (HEK-293T; 0 h, replicate number 2): 0.6; Growth Rate (Fibroblast; 12 h, replicate number 1): 0.87; Growth Rate (U2OS; 0 h, replicate number 2): -0.65; Growth Rate (U2OS; 6 h, replicate number 2): 0.98
2 | CCCNc1ccc2ncc(-c3ccncc3)n2n1 | -0.19 | -0.26 | -0.11 | 0.02 | 0.59 | 0.14 | -1 | 0.96 | 0.48 | – | 0.14 | 0.66 | 0.15 | 0.45 | -0.3 | -0.13 | -0.01 | 0.09 | 0.04 | 0.09 | Growth Rate (Fibroblast; 6 h, replicate number 2): 0.27; Growth Rate (Fibroblast; 12 h, replicate number 1): 0.2; Growth Rate (Fibroblast; 18 h, replicate number 1): 0.11; Growth Rate (Fibroblast; 24 h, replicate number 1): 0.13
3 | Cn1ccc(Cn2cnc(-c3ccc(F)cc3)c2-c2ccnc3[nH]ccc23)n1 | – | – | – | – | 0.53 | – | 0.48 | 0.89 | 0.89 | 0.94 | – | 0.95 | – | 0.89 | – | 0.86 | 0.89 | – | – | – | Growth Rate (HEK-293T; 0 h, replicate number 1): -0.47; Growth Rate (HEK-293T; 0 h, replicate number 2): 0.06; Growth Rate (HEK-293T; 18 h, replicate number 2): 0.98; Growth Rate (Fibroblast; 0 h, replicate number 1): 0.19; Growth Rate (U2OS; 6 h, replicate number 2): 0.97
4 | O=C(O)c1ccc(OCCCc2ccc(OCCCCOC3CCCCC3)cc2)c(C(=O)NC2CCCC(C(=O)O)C2)c1 (centres undefined) | 0.96 | 0.94 | – | – | – | – | – | – | – | – | – | – | 0.89 | – | – | – | 0.92 | 0.19 | 0.41 | 0.73 | Growth Rate (HEK-293T; 0 h, replicate number 1): -0.01; Growth Rate (HEK-293T; 18 h, replicate number 2): 0.94; Growth Rate (Fibroblast; 6 h, replicate number 2): -0.02
5 | CCO[C@H](COc1ccc(C(F)(F)F)cc1)CSc1ccc(OCC(=O)[O-])c(C)c1.[Na+] | – | – | – | – | 0.62 | 0.27 | – | – | 0.94 | 0.8 | 0.96 | 0.92 | – | 0.78 | 0.55 | 0.82 | 0.68 | 0.87 | 0.97 | – | Growth Rate (HEK-293T; 0 h, replicate number 1): -0.25; Growth Rate (HEK-293T; 0 h, replicate number 2): -0.95; Growth Rate (HEK-293T; 18 h, replicate number 2): 0.72; Growth Rate (Fibroblast; 12 h, replicate number 1): 0.7; Growth Rate (Fibroblast; 18 h, replicate number 1): 0.93; Growth Rate (Fibroblast; 24 h, replicate number 1): 0.93; Growth Rate (U2OS; 0 h, replicate number 2): 0.56; Growth Rate (U2OS; 6 h, replicate number 2): 0.78
6 | Cn1nc(-c2ccc(C(N)=O)cc2)c2ccccc2c1=O | 0.11 | 0.75 | 0.73 | 0.79 | – | 0.25 | – | 0.58 | 0.8 | 0.97 | 0.93 | – | 0.96 | – | 0.45 | 0.4 | 0.74 | 0.65 | – | – | Growth Rate (HEK-293T; 18 h, replicate number 2): 0.55; Growth Rate (Fibroblast; 12 h, replicate number 1): 0.99; Growth Rate (Fibroblast; 18 h, replicate number 1): 0.84; Growth Rate (Fibroblast; 24 h, replicate number 1): 1; Growth Rate (U2OS; 0 h, replicate number 2): 0.98
7 | CC(=O)Nc1cccc(-n2c(=O)n(C3CC3)c(=O)c3c(Nc4ccc(I)cc4F)n(C)c(=O)c(C)c32)c1 [TRAMETINIB] | – | – | – | – | – | 0.65 | 0.34 | 0.99 | 0.58 | 0.91 | 0.53 | 0.85 | 0.9 | 0.74 | 0.92 | 0.78 | – | – | – | – | Growth Rate (HEK-293T; 0 h, replicate number 1): 0.04; Growth Rate (HEK-293T; 0 h, replicate number 2): -0.7; Growth Rate (U2OS; 0 h, replicate number 2): 0.61; Growth Rate (U2OS; 6 h, replicate number 2): 0.66
8 | CN(C)C(=O)Cn1cc(-c2ccc(-c3nnc4ccccn34)cc2)cn1 | 0.81 | 0.91 | – | – | -0.65 | 0.9 | 0.43 | 0.9 | 0.76 | 0.88 | – | 0.96 | 0.67 | 0.99 | – | – | – | 0.97 | 0.9 | 0.99 | Growth Rate (HEK-293T; 0 h, replicate number 2): 0.91
9 | CCOC(=O)c1ccc(CN(Cc2ccc(-c3cccc(S(C)(=O)=O)c3)cc2)S(=O)(=O)c2c(C)cc(C)cc2C)o1 | – | – | – | – | – | – | – | – | – | – | – | – | – | 0.89 | – | 0.98 | – | 0.87 | 0.84 | 0.87 | Growth Rate (HEK-293T; 0 h, replicate number 1): -0.26; Growth Rate (Fibroblast; 0 h, replicate number 1): 0.32; Growth Rate (Fibroblast; 6 h, replicate number 2): 0.38; Growth Rate (Fibroblast; 12 h, replicate number 1): 0.59; Growth Rate (Fibroblast; 18 h, replicate number 1): 0.86; Growth Rate (Fibroblast; 24 h, replicate number 1): 0.99
10 | Cc1ccc(-n2nc(C(C)(C)C)cc2NC(=O)Nc2ccc(OCCN3CCOCC3)c3ccccc23)cc1 [DORAMAPIMOD] | 0.67 | 0.67 | 0.87 | 0.95 | 0.08 | – | -1 | – | – | 0.9 | – | 0.87 | – | 0.76 | – | – | – | – | – | – | Growth Rate (HEK-293T; 0 h, replicate number 1): -0.47
11 | COc1cc(-c2cc([C@H](O)C3CC3)n3ncnc(N)c23)ccc1CO | -0.7 | 0.16 | 0.62 | 0.74 | 0.98 | – | – | – | – | 0.85 | – | 0.89 | 0.8 | 0.91 | -0.8 | 0.26 | 0.87 | – | – | 0.98 | Growth Rate (HEK-293T; 18 h, replicate number 2): 0.76
12 | CCOC(=O)N1CCC(c2cc(O)n3nc(C)c(-c4ccc(F)cc4)c3n2)CC1 | – | 0.62 | 0.78 | 0.88 | – | – | 0.61 | 0.54 | 0.93 | – | 0.98 | – | – | – | 0.98 | – | – | 0.8 | 0.85 | 0.92 | Growth Rate (Fibroblast; 6 h, replicate number 2): -0.67; Growth Rate (Fibroblast; 18 h, replicate number 1): 0.13; Growth Rate (U2OS; 0 h, replicate number 2): 0.63; Growth Rate (U2OS; 6 h, replicate number 2): 0.99
